Experimental findings from patent US11000555B2, “Method for preparing a limax compound and therapeutic use thereof” (GUANGXI JIUFU BIOTECHNOLOGY CO., LTD, priority 2017, dated 2021) are described below.

The test system of data set [1] is mice. The data set can be described thus: Mouse spontaneous activity test. In kind it is in vivo, Kunming mice. Here is the method:
Forty Kunming mice, half males and half females, were fasted for 12 h but free to drink water. The mice were randomly divided into four groups: a blank control group, a low does Compound group (0.4 g/kg, ig), a high dose Compound group (0.8 g/kg, ig) and a positive drug control group (Estazolam, 2 mg/kg). The mice were placed into the YLS-1A multifunctional recorder for spontaneous activities of small animals. After 5 minutes of adaptation, the number of the mice's spontaneous activities before administration were recorded, and the recording lasted for 10 minutes. The room was kept quiet during recording, at a room temperature of 20-24° C. After this, each group of mice was administered according to the above doses, and the number of spontaneous activities within 10 min were recorded 45 min later. The blank control group was given the same volume of normal saline (ig).

Data set [2] concerns mice. The data set can be described thus: Inducing the mice to sleep by a subthreshold dose of pentobarbital sodium. In kind it is in vivo, Kunming mice. The note with it: Estazolam 2 mg/kg; pentobarbital sodium 30 mg/kg ip; n = 20. Here is the method:
Eighty Kunming mice, half males and half females, were fasted for 12 h but free to drink water. The mice were randomly divided into four groups: a blank control group, a low does Compound group (0.4 g/kg, ig), a high dose Compound group (0.8 g/kg, ig) and a positive drug control group (Estazolam, 2 mg/kg). each group of mice was administered according to the above doses (ig), and the blank control group was given the same volume of normal saline. Forty-five minutes later, each mouse was given (ip) 30 mg/kg pentobarbital sodium, and the number of mice falling asleep within 15 min was recorded by taking the absence of righting reflex more than 1 min as the indicator of falling asleep.

For data set [3], the system named is mice. The data set can be described thus: Physical dependence test: induced withdrawal test for the mice. Conditions: morphine hydrochloride sc twice a day, increasing 25 to 150 mg/kg daily, 7 days, naloxone 8 mg/kg ip. Here is the method:
The daily doses were 25, 50, 75, 100, 125, 150 mg/kg according to the dose increasing principle, increased day by day, reached 150 mg/kg on day 6 which was adopted the same on day 7. The compound group was administered (ig) twice daily (8:00 am, 8:00 pm) at daily doses of 0.6, 1.2, 1.8, 2.4, 3.0, 3.6 g/kg. The dose increased every day from 0.6 g/kg to 3.6 g/kg on day 6 which was adopted the same on day 7. The negative control group was given (ig) the same volume of vegetable oil every day at the same time and for the same times as the compound group. On day 7, naloxone (8 mg/kg, ip) was given to each group of mice to induce withdrawal. The jump reaction within 30 min and weight change one hour before and after inducement were observed. Weight loss value=weight before inducement−weight after inducement.

In data set [4] the test system is rats. The data set can be described thus: Physical dependence test: induced withdrawal test for the rats. Conditions: morphine hydrochloride sc twice a day, increasing 5 to 60 mg/kg, 7 days; naloxone 5 mg/kg ip day 8. Here is the method: The compound group was administered (ig) twice a day according to the dose increasing principle, at daily doses of 0.5, 1.0, 1.5, 2.0, 2.5, 3.0 g/kg. The dose was increased every day from 0.5 g/kg to 3.0 g/kg on day 6 which was adopted the same on day 7. The negative control group was given (ig) the same volume of vegetable oil per day at the same time and for the same times as the compound group. On day 8, the rats in each group were given naloxone (5 mg/kg, ip) to induce withdrawal, and the withdrawal status of the rats within 30 min and the weight change one hour before and after the inducement were observed. The evaluation criteria of withdrawal symptoms of rats were established by referring to the Tomoji Yanagita evaluation criteria and our pre-experimental results (see Appendix Table 17). The withdrawal scores and weight loss values of each group of rats were statistically processed. Weight loss value=weight before inducement−weight after inducement.

The test system of data set [5] is mice. The data set can be described thus: Hot plate test of analgesic effect. In kind it is in vivo, Kunming mice. Conditions: hot plate 55° C.; for Pain threshold: methadone 20 mg/kg, cut-off 60 seconds. The protocol: Kunming mice, female, were selected. And a selection among them was conducted prior to the test. The hot plate was adjusted to 55° C.±0.5° C., the female mice were placed on the hot plate, and the duration (in seconds) required from placing the mice on the hot plate until the mice licked their feet as the normal pain threshold of the mice. All those who licked their feet within 5 s or after 30 s and jumped were abandoned. Forty qualified mice were selected and randomly divided into 4 groups: a blank control group, a low dose Compound group, a high dose Compound group, and a positive control group, 10 mice per group. The normal pain threshold of each mouse was measured repeatedly, and the average of two measurements was taken as the pre-administration pain threshold of the mouse. Each group was then administered (at doses and by delivery routes as above), 0.2 ml per 10 g body weight. The pain threshold of each group was measured 60 min and 120 min after administration. If a mouse remained unresponsive for more than 60 seconds on the hot plate, its pain threshold was calculated as 60 seconds.

Data set [6] concerns mice. The data set can be described thus: Acetic acid writhing test of mice. The note with it: methadone 20 mg/kg, delivery route im; 0.6% acetic acid ip; in 20 min. In kind it is in vivo, Kunming mice. The protocol: Forty Kunming mice, male, were fasted for 12 h before the experiment but free to drink water. They were randomly divided into 4 groups: a blank control group, a low dose Compound group, a high dose Compound group, and a positive control group. […] The mice were administered (ig) at a low dose (0.4 g/kg) and a high dose (0.8 g/kg) of the compound, at a volume of 0.2 ml per 10 g body weight. The positive control group was administered (ip) methadone (20 mg/kg) and the blank control group was given (ig) the same volume of normal saline. Forty-five minutes after administration, each mouse was given (ip) 0.6% acetic acid, 0.2 ml for each. The mice were then observed for writhing reaction, with abdominal contraction and hind limb extension or hip elevation regarded as positive. Times of writhing in 20 min were recorded starting from 5 min after acetic acid injection. The analgesic effect was evaluated by taking completely inhibiting writhing reaction induced by acetic acid as an indicator.
(An intraperitoneal irritant provokes the stretching counted in writhing tests.)

For data set [7], the system named is morphine-induced place preference of mice. The data set can be described thus: Conditioned place preference of morphine-induced mice. The format is in vivo, Kunming mice. Here is the method: The mice were acclimatized for 3 days, the natural place preference time of the mice was measured before the administration, so that the mice with obvious preference on one cuboid of the experimental box were excluded to clear the effect of unconditional place preference on the results. […] The observation was conducted under sound insulation conditions. […] Thus, the white cuboid was used as the non-preferred side (i.e., the companion box).
After 6 consecutive days of training and administration, the mice developed conditioned place preference.
Each group was administered for 3 consecutive days.

In data set [8] the test system is morphine-dependent mice. The data set can be described thus: Therapeutic effect on naloxone-induced withdrawal symptoms of morphine-dependent mice. Conditions: methadone 20 mg/kg ig. In kind it is in vivo, Kunming mice. The protocol: The model of morphine-dependent mice was replicated by the dose-increasing method. […] Group (1) was a blank control group, injected subcutaneously (sc) with normal saline (0.2 ml/10 g), and groups (2)˜(5) were used to replicate the model of morphine-dependent mice by the dose-increasing method.
The administration continued for 3 days for each group. Mice were free to drink and eat. Naloxone (8.0 mg/kg, ip) was given 1 h after administrations on d1 and d3 during the treatment to induce withdrawal symptoms, and jumping reaction in 30 min and body weights before and after the inducement were observed.

Where a name gives a salt, the structure may show the parent alone. Marks after values point to notes of the source that are not given here.

Regarding `Clc1ccc2c(c1)C(c1ccccc1)=NCc1nncn1-2` [Estazolam, reference compound], the “Number of spontaneous activities” value in data set [1] (After administration (45 min), Estazolam 2 mg/kg) is 45.4 ± 34.43**^ΔΔ per 10 min; in data set [1] (Before administration, Estazolam group), 136.6 ± 43.35 per 10 min. The “Number of the mice showing disappearance of righting reflex” value in data set [2] is on record as 18 per group.

As for `CN1CC[C@]23c4c5ccc(O)c4O[C@H]2[C@@H](O)C=C[C@H]3[C@H]1C5.Cl` [Morphine, Morphine hydrochloride, reference compound], in data set [3], the Weight loss was found to be 0.57 ± 0.25 g. Also, the Number of jumps in data set [3] (30 min) was determined as 64.10 ± 15.29. Besides, the “Induced withdrawal symptom score” value in data set [4] stood at 76.9 ± 14.53.

On to `CCC(=O)C(CC(C)N(C)C)(c1ccccc1)c1ccccc1` (stereo not drawn) [methadone, Methadone hydrochloride, reference compound], for which the Pain threshold turned out to be 58.4 ± 9.05 s in data set [5] (60 min) and 51.5 ± 10.11 s in data set [5] (120 min). Further, the “Pain threshold before administration” value in data set [5] (base line, methadone group) is 24.4 ± 5.72 s. In data set [6], this molecule returned a Times of writhing of 8.7 ± 3.74. Moreover, the “Duration of mice staying in companion box” value in data set [7] (After administration, methadone 20 mg/kg ig 3 days + morphine 9 mg/kg sc, 15 min observation) is listed as 499.6 ± 123.26*^ΔΔ s; in data set [7] (Before administration (base line), methadone 20 mg/kg + morphine 9 mg/kg group), 333.7 ± 114.95 s. Further, the “Numbers of jumping reactions of mice (mice of n = 10)” value in data set [8] (d 1) and in data set [8] (d 3) was 10 throughout. Moreover, the “Numbers of jumping reactions of mice, percentage” value in data set [8] (d 1) and in data set [8] (d 3) was 100% throughout. For the same molecule, the “Weight change: body weights of mice before and after induced withdrawal” value is 0.22 ± 0.19 g in data set [8] (d 1) and 0.46 ± 0.23 g in data set [8] (d 3).
